Experimental data published in the NIST ThermoML archive (doi:10.1016/j.jct.2015.11.027).
± gives the expanded uncertainty stated by the source.

Details: Liquid, Vibrating wire viscometry

CCc1ccccc1 [ethylbenzene]
Details | viscosity [mPa·s]
253.21 K, 5000 kPa | 1.259 ± 0.026
253.22 K, 1000 kPa | 1.211 ± 0.025
253.22 K, 10000 kPa | 1.311 ± 0.028
253.22 K, 35000 kPa | 1.593 ± 0.033
253.23 K, 100 kPa | 1.2 ± 0.025
253.23 K, 20000 kPa | 1.423 ± 0.03
253.23 K, 25000 kPa | 1.479 ± 0.031
253.24 K, 15000 kPa | 1.368 ± 0.029
253.24 K, 30000 kPa | 1.535 ± 0.032
263.2 K, 10000 kPa | 1.11 ± 0.024
263.2 K, 15000 kPa | 1.16 ± 0.025
263.21 K, 5000 kPa | 1.063 ± 0.023
263.21 K, 20000 kPa | 1.207 ± 0.025
263.21 K, 25000 kPa | 1.257 ± 0.026
263.21 K, 35000 kPa | 1.35 ± 0.028
263.22 K, 100 kPa | 1.021 ± 0.022
263.22 K, 1000 kPa | 1.028 ± 0.022
263.22 K, 30000 kPa | 1.304 ± 0.027
273.15 K, 5000 kPa | 0.9249 ± 0.02
273.15 K, 20000 kPa | 1.042 ± 0.022
273.15 K, 30000 kPa | 1.123 ± 0.024
273.15 K, 35000 kPa | 1.163 ± 0.025
273.16 K, 25000 kPa | 1.082 ± 0.023
273.17 K, 1000 kPa | 0.8919 ± 0.019
273.18 K, 10000 kPa | 0.9635 ± 0.021
273.19 K, 15000 kPa | 1.003 ± 0.021
273.21 K, 100 kPa | 0.8832 ± 0.019
283.13 K, 1000 kPa | 0.7784 ± 0.017
283.14 K, 10000 kPa | 0.8372 ± 0.018
283.15 K, 20000 kPa | 0.9017 ± 0.019
283.16 K, 100 kPa | 0.7737 ± 0.017
283.16 K, 5000 kPa | 0.8028 ± 0.017
283.16 K, 30000 kPa | 0.9641 ± 0.021
283.16 K, 35000 kPa | 0.9964 ± 0.021
283.17 K, 15000 kPa | 0.8678 ± 0.019
283.17 K, 25000 kPa | 0.9314 ± 0.02
293.18 K, 5000 kPa | 0.7056 ± 0.015
293.2 K, 1000 kPa | 0.6832 ± 0.015
293.22 K, 25000 kPa | 0.8173 ± 0.018
293.23 K, 15000 kPa | 0.7607 ± 0.017
293.24 K, 10000 kPa | 0.7327 ± 0.016
293.24 K, 20000 kPa | 0.7871 ± 0.017
293.24 K, 30000 kPa | 0.8447 ± 0.018
293.26 K, 100 kPa | 0.6786 ± 0.015
293.26 K, 35000 kPa | 0.8724 ± 0.019
303.15 K, 100 kPa | 0.6033 ± 0.013
303.17 K, 1000 kPa | 0.6074 ± 0.013
303.17 K, 20000 kPa | 0.6989 ± 0.015
303.18 K, 5000 kPa | 0.6268 ± 0.014
303.18 K, 25000 kPa | 0.7235 ± 0.016
303.18 K, 35000 kPa | 0.7739 ± 0.017
303.19 K, 15000 kPa | 0.6744 ± 0.015
303.19 K, 30000 kPa | 0.7502 ± 0.016
303.2 K, 10000 kPa | 0.6499 ± 0.014
313.08 K, 30000 kPa | 0.6722 ± 0.015
313.09 K, 20000 kPa | 0.6261 ± 0.014
313.1 K, 10000 kPa | 0.5812 ± 0.013
313.1 K, 25000 kPa | 0.649 ± 0.014
313.1 K, 35000 kPa | 0.694 ± 0.015
313.11 K, 5000 kPa | 0.5596 ± 0.013
313.12 K, 100 kPa | 0.5386 ± 0.012
313.12 K, 1000 kPa | 0.5427 ± 0.012
313.12 K, 15000 kPa | 0.6039 ± 0.013
322.97 K, 100 kPa | 0.4865 ± 0.011
322.97 K, 20000 kPa | 0.5648 ± 0.013
322.98 K, 1000 kPa | 0.4895 ± 0.011
322.98 K, 5000 kPa | 0.5042 ± 0.011
322.98 K, 10000 kPa | 0.5245 ± 0.012
322.98 K, 15000 kPa | 0.544 ± 0.012
322.98 K, 25000 kPa | 0.5856 ± 0.013
322.98 K, 30000 kPa | 0.606 ± 0.013
322.98 K, 35000 kPa | 0.6259 ± 0.014
332.91 K, 100 kPa | 0.4422 ± 0.01
332.91 K, 5000 kPa | 0.4595 ± 0.011
332.92 K, 1000 kPa | 0.4448 ± 0.01
332.92 K, 10000 kPa | 0.478 ± 0.011
332.92 K, 15000 kPa | 0.4961 ± 0.011
332.92 K, 20000 kPa | 0.5149 ± 0.012
332.92 K, 25000 kPa | 0.5331 ± 0.012
332.92 K, 30000 kPa | 0.5516 ± 0.012
332.92 K, 35000 kPa | 0.5706 ± 0.013
342.8 K, 1000 kPa | 0.4049 ± 0.0095
342.8 K, 10000 kPa | 0.4356 ± 0.01
342.8 K, 15000 kPa | 0.4524 ± 0.01
342.8 K, 20000 kPa | 0.4691 ± 0.011
342.8 K, 25000 kPa | 0.4869 ± 0.011
342.8 K, 30000 kPa | 0.5045 ± 0.011
342.8 K, 35000 kPa | 0.5223 ± 0.012
342.81 K, 100 kPa | 0.4022 ± 0.0095
342.81 K, 5000 kPa | 0.4186 ± 0.0098
352.72 K, 5000 kPa | 0.3851 ± 0.0091
352.72 K, 20000 kPa | 0.4335 ± 0.01
352.72 K, 35000 kPa | 0.4807 ± 0.011
352.73 K, 100 kPa | 0.3693 ± 0.0088
352.73 K, 1000 kPa | 0.372 ± 0.0089
352.73 K, 10000 kPa | 0.4003 ± 0.0094
352.73 K, 15000 kPa | 0.4164 ± 0.0097
352.73 K, 25000 kPa | 0.4495 ± 0.01
352.73 K, 30000 kPa | 0.4654 ± 0.011
362.66 K, 100 kPa | 0.339 ± 0.0083
362.66 K, 1000 kPa | 0.3418 ± 0.0083
362.66 K, 5000 kPa | 0.3538 ± 0.0086
362.66 K, 15000 kPa | 0.3838 ± 0.0091
362.66 K, 20000 kPa | 0.3986 ± 0.0094
362.66 K, 25000 kPa | 0.4137 ± 0.0097
362.66 K, 30000 kPa | 0.4289 ± 0.01
362.67 K, 10000 kPa | 0.3685 ± 0.0088
362.67 K, 35000 kPa | 0.4429 ± 0.01
372.59 K, 5000 kPa | 0.3272 ± 0.0081
372.59 K, 10000 kPa | 0.341 ± 0.0083
372.59 K, 15000 kPa | 0.3541 ± 0.0086
372.59 K, 20000 kPa | 0.3688 ± 0.0088
372.59 K, 25000 kPa | 0.3822 ± 0.0091
372.59 K, 30000 kPa | 0.3967 ± 0.0094
372.59 K, 35000 kPa | 0.4108 ± 0.0096
372.6 K, 1000 kPa | 0.3155 ± 0.0079
372.61 K, 100 kPa | 0.3127 ± 0.0078
